This note sets out measurements from BindingDB's records for doi:10.1021/jm00037a025 (University of Oxford, 1994).

D(2) dopamine receptor, sequence (P61169 whole entry): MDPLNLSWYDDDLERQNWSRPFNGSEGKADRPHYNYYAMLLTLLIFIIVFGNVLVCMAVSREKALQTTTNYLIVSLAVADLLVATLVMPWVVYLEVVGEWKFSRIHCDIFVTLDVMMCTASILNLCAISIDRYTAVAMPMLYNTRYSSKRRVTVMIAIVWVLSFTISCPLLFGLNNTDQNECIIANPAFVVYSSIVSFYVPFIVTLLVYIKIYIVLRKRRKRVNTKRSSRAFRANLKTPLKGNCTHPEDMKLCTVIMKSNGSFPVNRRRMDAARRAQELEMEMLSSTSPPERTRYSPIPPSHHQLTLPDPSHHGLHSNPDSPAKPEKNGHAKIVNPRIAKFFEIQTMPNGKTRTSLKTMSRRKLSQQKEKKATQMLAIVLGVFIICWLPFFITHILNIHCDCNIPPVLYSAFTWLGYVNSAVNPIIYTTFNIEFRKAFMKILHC

The assay concerns the target D(2) dopamine receptor (Rattus norvegicus, UniProt P61169). Briefly: Displacement of spiperone from dopamine receptor D2 of rat brain membrane.
For the compound `CCCCN1CCC[C@H](c2cccc(O)c2)C1`, the IC50 (in general, the point on the concentration scale where inhibition reaches its midpoint) came out at 430 nM.
For `CN1CCC[C@@H](c2cccc(O)c2)C1` the value was 290 nM; for `CCc1ccc(N2CCC[C@H](c3cccc(O)c3)C2)cc1`, 1230 nM.
For `CCc1ccc(N2CCC[C@@H](c3cccc(O)c3)C2)cc1` the value was 43.7 nM.
For `CN1CCC[C@H](c2cccc(O)c2)C1` the value was 610 nM.
